Key:
[1] = biological target: 72 kDa type IV collagenase (Homo sapiens, UniProt P08253); assay: Inhibition of human recombinant MMP2 after 1 hr
[2] = biological target: Matrix metalloproteinase-9 (Homo sapiens, UniProt P14780); assay: Inhibition of human recombinant MMP9 after 1 hr
[3] = biological target: Stromelysin-1 (Homo sapiens, UniProt P08254); assay: Inhibition of human recombinant MMP3 after 1 hr
[4] = biological target: Macrophage metalloelastase (Homo sapiens, UniProt P39900); assay: Inhibition of human recombinant MMP12 after 1 hr
Sequence of Macrophage metalloelastase (P39900 whole entry): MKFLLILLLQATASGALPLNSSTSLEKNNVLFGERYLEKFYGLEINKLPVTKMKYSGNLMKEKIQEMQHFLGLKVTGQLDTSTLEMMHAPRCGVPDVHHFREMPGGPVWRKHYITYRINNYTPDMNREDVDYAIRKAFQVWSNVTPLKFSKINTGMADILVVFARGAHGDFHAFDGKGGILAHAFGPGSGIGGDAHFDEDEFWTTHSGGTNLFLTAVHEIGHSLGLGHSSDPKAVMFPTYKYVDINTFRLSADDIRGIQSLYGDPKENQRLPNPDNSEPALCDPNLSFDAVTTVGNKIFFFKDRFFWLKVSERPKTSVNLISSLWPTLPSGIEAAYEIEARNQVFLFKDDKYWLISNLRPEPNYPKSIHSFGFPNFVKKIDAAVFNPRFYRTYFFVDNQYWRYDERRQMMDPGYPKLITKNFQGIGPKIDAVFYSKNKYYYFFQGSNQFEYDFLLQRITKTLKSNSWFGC

Sequence of Matrix metalloproteinase-9 (P14780 whole entry): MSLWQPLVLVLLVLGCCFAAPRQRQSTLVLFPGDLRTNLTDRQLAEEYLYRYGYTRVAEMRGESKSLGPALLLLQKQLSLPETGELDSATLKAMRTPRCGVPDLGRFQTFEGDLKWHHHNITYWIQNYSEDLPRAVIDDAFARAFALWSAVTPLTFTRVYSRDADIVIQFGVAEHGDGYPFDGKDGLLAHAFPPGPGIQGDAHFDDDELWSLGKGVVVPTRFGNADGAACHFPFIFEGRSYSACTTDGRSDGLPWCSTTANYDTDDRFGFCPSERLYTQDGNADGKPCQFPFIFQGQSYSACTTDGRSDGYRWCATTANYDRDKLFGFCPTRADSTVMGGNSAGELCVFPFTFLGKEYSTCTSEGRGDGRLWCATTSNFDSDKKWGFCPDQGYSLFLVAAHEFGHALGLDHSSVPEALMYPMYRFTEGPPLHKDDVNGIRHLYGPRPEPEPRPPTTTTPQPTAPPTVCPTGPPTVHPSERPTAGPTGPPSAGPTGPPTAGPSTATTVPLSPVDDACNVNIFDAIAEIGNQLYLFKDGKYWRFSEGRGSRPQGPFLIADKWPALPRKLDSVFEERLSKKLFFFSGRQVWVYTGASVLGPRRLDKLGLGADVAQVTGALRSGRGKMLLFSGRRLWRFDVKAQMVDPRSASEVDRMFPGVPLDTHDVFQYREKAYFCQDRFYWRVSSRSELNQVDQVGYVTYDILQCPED
Sequence of 72 kDa type IV collagenase (P08253 whole entry): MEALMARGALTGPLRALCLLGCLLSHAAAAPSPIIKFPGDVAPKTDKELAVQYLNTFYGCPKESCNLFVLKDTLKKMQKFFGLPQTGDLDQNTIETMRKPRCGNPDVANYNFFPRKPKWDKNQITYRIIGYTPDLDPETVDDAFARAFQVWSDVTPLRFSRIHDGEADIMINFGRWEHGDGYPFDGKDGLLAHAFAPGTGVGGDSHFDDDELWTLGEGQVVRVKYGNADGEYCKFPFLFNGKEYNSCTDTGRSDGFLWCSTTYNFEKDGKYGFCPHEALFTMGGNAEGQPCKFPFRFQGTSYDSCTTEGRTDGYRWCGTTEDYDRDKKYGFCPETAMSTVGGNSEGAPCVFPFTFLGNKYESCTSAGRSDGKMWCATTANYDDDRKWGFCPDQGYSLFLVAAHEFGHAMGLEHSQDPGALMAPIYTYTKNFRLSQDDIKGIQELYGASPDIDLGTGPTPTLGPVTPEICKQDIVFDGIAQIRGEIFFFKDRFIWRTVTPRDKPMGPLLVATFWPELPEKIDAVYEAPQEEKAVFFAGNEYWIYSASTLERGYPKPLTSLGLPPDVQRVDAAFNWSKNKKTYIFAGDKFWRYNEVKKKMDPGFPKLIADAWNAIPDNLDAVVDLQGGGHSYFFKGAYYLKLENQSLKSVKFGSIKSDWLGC
Sequence of Stromelysin-1 (P08254 whole entry): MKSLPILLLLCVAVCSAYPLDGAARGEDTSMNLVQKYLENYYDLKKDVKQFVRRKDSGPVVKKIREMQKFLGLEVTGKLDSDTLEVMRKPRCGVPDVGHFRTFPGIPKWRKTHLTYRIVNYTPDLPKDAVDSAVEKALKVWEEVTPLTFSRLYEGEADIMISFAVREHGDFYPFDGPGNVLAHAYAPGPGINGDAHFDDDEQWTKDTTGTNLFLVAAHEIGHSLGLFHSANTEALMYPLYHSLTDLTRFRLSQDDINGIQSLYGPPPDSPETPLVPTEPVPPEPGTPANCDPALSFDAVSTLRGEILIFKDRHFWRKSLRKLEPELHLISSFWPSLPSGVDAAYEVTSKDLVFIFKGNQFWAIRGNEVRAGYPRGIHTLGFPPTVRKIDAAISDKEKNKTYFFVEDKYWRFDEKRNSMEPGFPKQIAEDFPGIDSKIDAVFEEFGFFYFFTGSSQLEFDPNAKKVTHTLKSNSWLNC

IC50 [1]: 145 µM
IC50 [2]: 320 µM
IC50 [3]: 300 µM
IC50 [4]: 121 µM
SMILES: O=P(O)(O)C(Cl)(Cl)P(=O)(O)O [CLODRONIC ACID]

— ChEMBL document CHEMBL1145450, “Platinum complexes can inhibit matrix metalloproteinase activity: platinum-diethyl[(methylsulfinyl)methyl]phosphonate complexes as inhibitors of matrix metalloproteinases 2, 3, 9, and 12” (J Med Chem, 2007)
